In US20260115314A1, “PREVENTION AND/OR TREATMENT OF CARDIAC DAMAGE” (priority 2022, published 2026):
Where no end group is shown, it is not given here.

What was measured:
NF-κB = NF-κB (p65) nuclear translocation in LPS-stimulated RAW 264.7 macrophages, confocal microscopy; format: cell-based; conditions: RAW 264.7 cells, NIL10, co-incubated with 5 μM STATTIC
Protocol: (§2) A. Confocal microscopy detection of NF-κB (p65) in RAW 264.7 cells stimulated with 500 μM LPS or in combination with NIL10. Nuclei were stained with DAPI. […] (N=3, results expressed as Mean±SD. *P<0.05 LPS/NIL10 vs LPS/NIL10SC). […] Confocal microscopy detection as in A, in which STATTIC, a pharmacological inhibitor of STAT3 was incubated. Arrows point nuclear or cytoplasmic localization of p65. Lower panels: immunoblot detection of iNOS in cells as in C. (N=3, results expressed as Mean±SD. *P<0.03 LPS vs LPS/NIL10 **P<0.05 LPS/STATTIC vs LPS/NIL10SC/STATTIC. ***P<0.001 NIL10/STATIC vs LPS/NIL10/STATIC).
(§3) The expression of the readout inducible nitric oxide synthase (iNOS) by pro-inflammatory signals was also assayed.

[1] = system: inducible nitric oxide synthase (iNOS); assay: Immunoblot of iNOS in LPS-stimulated RAW 264.7 macrophages; format: cell-based; conditions: NIL10 plus STATTIC
Protocol: as §2, §3

IL-10R = molecular target: T1, IL-10R (Mus musculus, UniProt Q61727); assay: Confocal microscopy colocalization of nanoparticles with IL-10R in RAW 264.7 macrophages; format: binding; conditions: RAW 264.7 cells, rhodamine nanoparticle vs FITC anti-IL-10R
T1 construct: endogenous in cells; host or cells: RAW 264.7 macrophages
T1 sequence (Q61727 17-575): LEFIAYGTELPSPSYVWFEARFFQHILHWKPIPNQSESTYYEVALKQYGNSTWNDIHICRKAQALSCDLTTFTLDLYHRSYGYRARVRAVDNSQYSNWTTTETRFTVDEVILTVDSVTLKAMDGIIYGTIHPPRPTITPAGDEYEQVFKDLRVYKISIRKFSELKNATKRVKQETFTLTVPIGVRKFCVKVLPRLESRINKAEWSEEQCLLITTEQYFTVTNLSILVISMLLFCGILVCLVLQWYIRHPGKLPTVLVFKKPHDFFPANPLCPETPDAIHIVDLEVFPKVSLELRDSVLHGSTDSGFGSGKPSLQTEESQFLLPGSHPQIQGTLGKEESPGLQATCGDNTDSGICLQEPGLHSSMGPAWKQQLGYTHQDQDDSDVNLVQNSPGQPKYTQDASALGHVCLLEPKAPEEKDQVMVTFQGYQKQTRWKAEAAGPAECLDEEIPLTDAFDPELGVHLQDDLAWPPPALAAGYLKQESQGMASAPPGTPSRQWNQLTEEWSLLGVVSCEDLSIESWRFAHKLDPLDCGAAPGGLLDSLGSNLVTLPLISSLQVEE
Protocol: FIG. 1. NIL10 binds to IL-10R in RAW 264.7 cells. A. Nanoparticle composition of NIL10 and NIL10SC. B. Z-potential, longitudinal and transversal relaxivities of NIL10 and NIL10SC nanoparticles. C. Bright field and confocal microscopy sections of RAW 264.7 macrophages, detecting rhodamine (red) containing NIL10 nanoparticles. D,E Colocalization of NIL10 (D) (rhodamine, red) or NIL10SC (E) with IL-10R (FICT, green) in confocal microscopy sections of RAW 264.7 cells incubated with NIL10 and anti-IL-10R specific antibody. Merged panel show co-localization of both signals. Nuclei were stained with Hoechst. Right panel: colocalization analysis with Image J co-localization plugin software, in which white dots correspond to co-localization (N=3).
To study the specificity of nanoparticles, we first incubated NIL10 (FIG. 1A, B) in RAW 264.7 macrophages, detecting rhodamine-containing nanoparticles by confocal microscopy (FIG. 1C).

mice subjected to IR = assay: LVEF by echocardiography in wild type mice subjected to IR; format: in vivo; conditions: 1 mg/kg 24 hours after IR, value NIL10 is compared against, day not given
Excerpt: FIG. 3. NIL10 induces cardiac protection in mice subjected to IR. A. Outline of the proceedings performed. B. Representative electrocardiogram, showing ST-elevation after LAD occlusion. C. Left ventricle ejection fraction (LVEF) of wild type mouse hearts at the times indicated after IR and injected with NIL10 or NIL10SC as in A. N=10 mice/group. Results expressed as mean±SD. *P<0.03 NIL10 vs NIL10SC day 7. #P<0.05 NIL10 vs NIL10SC day 3. D. LVEF in IL-10 knockout mice. N=10 mice/group. Results expressed as mean±SD. *P<0.01 NIL10 vs NIL10SC day 7. #P<0.05 NIL10 vs NIL10SC day 3. E. LVEF in IL-10 receptor knockout mice. N=10 mice/group. Results expressed as mean±SD.
(§1) 20 male twelve-week-old wild type, IL10 knock-out and IL10RA knock-out mice C57/BL6 were anesthetized by inhaled 3% sevoflurane and oxygen with a flow rate of 0.4 L/min until loss of righting reflex. Then, endotracheal intubation was perform using an intubation cannula in order to carry out artificial ventilation (tidal volume: 260 μL/stroke, ventilation rate: 130 strokes per minute). The fourth left intercostal space was opened and widened using chest mice retractors. Left ventricle was exposed and LAD was occluded for 30 min close by using a 6-0 silk suture and 1 mm tube. Reperfusion was performed by ligation release. After the procedure, the chest was closed, negative pressure restored, and the skin sutured. […]

[2] = system: mouse hearts subjected to IR; assay: Hematoxylin/Eosin and Masson trichrome staining of mouse heart sections after IR; format: in vivo, mice; conditions: by day 7 after IR
Excerpt: FIG. 4. Hematoxylin and Eosin staining of mouse hearts. Heart sections of mice subjected to IR and injected with NIL10 or NIL10SC and collected by days 3 (A) or 7 (B) after IR. N=10 mice/group. From left to right: 2×, 20×, 40×. *P<0.05 D3; **P<0.01D7.
FIG. 5. NIL10 reduce heart fibrosis in response to IR. A. Representative immunoblot of MMP9 from healthy (H) or necrotic (N) areas of mouse hearts after 7 days of IR and injected with NIL10 or NIL10SC. N=10 mice/group. Mean±SD. *P<0.001 NIL10 vs NIL10SC necrotic areas. B. Masson Trichrome staining of heart sections from mice injected with NIL10 or NIL10SC, after 3- or 7-days post IR (N=10 mice/group). *P<0.05 D3; **P<0.03 D7.
as §1, with “tube.” for “tube. Reperfusion was performed by ligation release. After the procedure, the chest was closed, negative pressure restored, and the skin sutured.”
Heart morphology was visualized by Hematoxylin/Eosin staining and collagen deposition was detected by Masson's trichrome staining in mice and pigs.

pigs subjected to IR = assay: Evans Blue/TTC staining of necrotic area in pig hearts after IR; format: in vivo; conditions: 1 mg/kg, after 7 days of IR, EvansBlue/TTC
Excerpt: FIG. 6. NIL10 induces cardiac protection in pigs subjected to IR. A. Evans blue/TTC staining (see methods for details) of pig heart sections (from apex to base) after 7 days of IR, showing healthy tissue (blue), the area at risk (red) and the necrotic areas (white). B. Measurement of necrotic areas of the hearts, represented as a percentage respect to the area at risk (Mean±SD. *P<0.001 NIL10 vs NIL10SC, at day 7 post IR). C. Left ventricle ejection fraction of hearts from pigs injected with NIL10 or NIL10SC after 7 days of IR (Mean±SD. *P<0.001 NIL10 vs NIL10SC). D. Hematoxylin and Eosin staining of healthy and necrotic heart sections from pigs injected with NIL10 or NIL10SC after 7 days of IR. E. Masson Trichrome staining of the same hearts as in D. (N=10 pigs/group).
20 male Yorkshire pigs (30±4 kg) were housed 1 week preceding the surgery to avoid unease or stress associated with the new environment. Prior to the surgical intervention, animals were anesthetized with intramuscular ketamine 10 mg/kg and midazolam 0.5 mg/kg.
Anesthesia was induced by inhaled sevoflurane and maintained with continuous infusion of propofol 2 mL/kg/h, fentanyl 50 μg/kg/h, and diazepam 10 μg/kg/h. […]

[3] = system: M2 CD68+/CD206+ macrophages; assay: Flow cytometry of M2 macrophage populations in mouse hearts after IR; format: in vivo, mice; conditions: cell extracts from necrotic areas of mouse hearts, 3 and 7 days of IR
Excerpt: FIG. 7. NIL10 induces M2 macrophage polarization in the hearts of mice subjected to IR. A. Flow cytometry analysis of macrophage populations in mouse hearts after 3 and 7 days of IR. The percentage of M2 CD68+/CD206+ population were selected from the necrotic and at-risk areas of the hearts. B. Gating strategy used to identify macrophage-cell subsets in the health and infarcted mouse heart. A sequential getting strategy was first used to identify M2 population expressing specific macrophage marker CD68, followed by the identification of the population with overlapping expression patterns (CD68/CD206) (N=10 mice/group). Differences between groups were compared using one-way ANOVA. **P<0.01. ***P<0.001. ****P<0.0001.
Whole mouse hearts were mashed in complete DMEM (10% FBS, penicillin/streptomycin) through a 100-μm cell strainer. ACK Lysing Buffer was added to the single-cell suspension and spun down at 350 g for 5 minutes. The ACK was washed out with 50 mL of washing buffer (1% FBS), and cells were incubated with 1:100 anti-EMMPRIN, anti-CD68 and anti-CD206 antibodies. All flow cytometry samples were assayed in a MACSQuant Analyzer Flow Cytometer and analyzed with the Graphpad Prism software package.

| Molecule | NIL10-induced cytoplasmic localization of NF-κB (NF-κB) | NIL10 inhibition of iNOS expression in the presence of STATTIC [1] | Colocalization with the IL-10R (IL-10R) | LVEF (comparator value) (mice subjected to IR) | extension of fibrosis (Masson Trichrome) [2] | necrotic area (pigs subjected to IR) | presence of M2-resolving macrophages [3] |
| --- | --- | --- | --- | --- | --- | --- | --- |
| O=[N+]([O-])c1ccc2c(c1)S(=O)(=O)C=C2 [STATTIC] | prevented | reversed | – | – | – | – | – |
| NIL10SC: nanoparticle conjugated with the same peptide in a scrambled orientation (CANYRMITKM); control, does not bind IL10R (also: conjugated to nanoparticle (site not given here)) | – | – | no binding | 41.5%±4.33 | fibrotic lesions were widespread | 55±7.34 percentage respect to the area | takes 7 days to detect a similar effect |
